Measurements as given in publication PMC10141580, “Cyclic Dichalcogenides Extend the Reach of Bioreductive Prodrugs to Harness Thiol/Disulfide Oxidoreductases: Applications to seco-Duocarmycins Targeting the Thioredoxin System” (ACS Central Science, 2023).
Several values for one entry are separate records, joined by “and”; a condition that tells them apart may be missing. Equal values may be shown once. Read-outs that look alike come from different tables or passages of the source.

Tested on: panel of 140 standard cancer cell lines
Test: ProliFiler-140 cancer cell line screen (CellTiterGlo, 72 h)
Format: cell-based
Experimental: Incubations were performed for 72 h before automated viability readout with CellTiterGlo (Figure 8).
End of Figure S11 (part 5 of 5): ProliFiler-140 cancer cell line screening for cytotoxicity of the prodrugs.
8-data-point dose response curves from CellTiter-Glo® viability readout.
ProliFiler-140 cell line panel part V

SMILES: COc1cc2cc(C(=O)N3C[C@@H](CCl)c4c3cc(OC(=O)N(CCC(=O)N3CCN(C)CC3)[C@H]3CCSSC3)c3ccccc43)[nH]c2c(OC)c1OC [P-SS60-CBI-TMI]
- Reductive Activation Index (786-O (Kidney)): 5.22
- IC50 (786-O (Kidney), read-out: IC50 [M] (ProliFiler-140)): 2.26e-08 M and 2.3e-08 M
- Reductive Activation Index (A172 (Brain)): 4.87
- IC50 (A172 (Brain), read-out: IC50 [M] (ProliFiler-140)): 1.18e-07 M and 1.2e-07 M
- Reductive Activation Index (A375 (Skin)): 5.08
- IC50 (A375 (Skin), read-out: IC50 [M] (ProliFiler-140)): 3.23e-08 M and 3.2e-08 M
- Reductive Activation Index (A427 (Lung)): 5.0 and 5.03
- IC50 (A427 (Lung), read-out: IC50 [M] (ProliFiler-140)): 1.6e-07 M and 1.64e-07 M
- IC50 (A431 (Skin), read-out: IC50 [M] (ProliFiler-140)): 4.05e-08 M and 4e-08 M
- Reductive Activation Index (A498 (Kidney)): 5.96
- IC50 (A498 (Kidney), read-out: IC50 [M] (ProliFiler-140)): 5.04e-08 M and 5e-08 M
- IC50 (A498, read-out: IC50): 5e-08 M
- Reductive Activation Index (A549 (Lung)): 6.4
- IC50 (A549 (Lung), read-out: IC50 [M] (ProliFiler-140)): 1.2e-07 M
- IC50 (A549, read-out: IC50): 1.2e-07 M
- IC50 (A2058 (Skin), read-out: IC50 [M] (ProliFiler-140)): 1.5e-08 M
- IC50 (A2780 (Ovary), read-out: IC50 [M] (ProliFiler-140)): 1.2e-08 M
- Reductive Activation Index (AsPC-1 (Pancreas)): 8.2
- IC50 (AsPC-1 (Pancreas), read-out: IC50 [M] (ProliFiler-140)): 2.6e-07 M and 2.63e-07 M
- Reductive Activation Index (BEN (Lung)): 13
- IC50 (BEN (Lung), read-out: IC50 [M] (ProliFiler-140)): 1.1e-07 M and 1.12e-07 M
- Reductive Activation Index (BT-20 (Breast)): 4.6
- IC50 (BT-20 (Breast), read-out: IC50 [M] (ProliFiler-140)): 2.4e-07 M and 2.42e-07 M
- fold-change of IC50 relative to P-CC60 (BxPC-3): 6
- IC50 (BxPC-3 (Pancreas), read-out: IC50 [M] (ProliFiler-140)): 1.08e-07 M and 1.1e-07 M
- IC50 (COLO 205, read-out: IC50): 1.6e-07 M
- IC50 (COR-L279 (Lung), read-out: IC50 [M] (ProliFiler-140)): 1.4e-08 M and 1.43e-08 M
- IC50 (COV434 (Ovary), read-out: IC50 [M] (ProliFiler-140)): 2.2e-08 M and 2.24e-08 M
- Reductive Activation Index (Caki-1 (Kidney)): 5.23
- IC50 (Caki-1 (Kidney), read-out: IC50 [M] (ProliFiler-140)): 6.29e-08 M and 6.3e-08 M
- Reductive Activation Index (Caki-2 (Kidney)): 7.2
- IC50 (Caki-2 (Kidney), read-out: IC50 [M] (ProliFiler-140)): 2.1e-07 M
- Reductive Activation Index (Calu-6 (Lung)): 6.64
- IC50 (Calu-6 (Lung), read-out: IC50 [M] (ProliFiler-140)): 5.16e-08 M and 5.2e-08 M
- Reductive Activation Index (Colo 205 (Colon)): 4.9
- IC50 (Colo 205 (Colon), read-out: IC50 [M] (ProliFiler-140)): 1.6e-07 M and 1.57e-07 M
- Reductive Activation Index (DLD-1 (Colon)): 4.69 and 4.7
- IC50 (DLD-1 (Colon), read-out: IC50 [M] (ProliFiler-140)): 1.69e-07 M and 1.7e-07 M
- IC50 (DU-145 (Prostate), read-out: IC50 [M] (ProliFiler-140)): 3.6e-08 M and 3.58e-08 M
- IC50 (DV90 (Lung), read-out: IC50 [M] (ProliFiler-140)): 1.3e-08 M and 1.32e-08 M
- IC50 (Detroit562 (Head/Neck), read-out: IC50 [M] (ProliFiler-140)): 4.27e-08 M and 4.3e-08 M
- Reductive Activation Index (EFM-19 (Breast)): 4.2 and 4.18
- IC50 (EFM-19 (Breast), read-out: IC50 [M] (ProliFiler-140)): 2.3e-07 M
- Reductive Activation Index (EFM-192A (Breast)): 5.9
- IC50 (EFM-192A (Breast), read-out: IC50 [M] (ProliFiler-140)): 3e-07 M and 3.01e-07 M
- Reductive Activation Index (EFO-27 (Ovary)): 5.7
- IC50 (EFO-27 (Ovary), read-out: IC50 [M] (ProliFiler-140)): 1.6e-07 M and 1.58e-07 M
- IC50 (EPLC-272H (Lung), read-out: IC50 [M] (ProliFiler-140)): 7.9e-08 M
- Reductive Activation Index (H4 (Brain)): 5.36
- IC50 (H4 (Brain), read-out: IC50 [M] (ProliFiler-140)): 1.51e-08 M and 1.5e-08 M
- Reductive Activation Index (H460 (Lung)): 7.2
- IC50 (H460 (Lung), read-out: IC50 [M] (ProliFiler-140)): 7.1e-09 M and 7.11e-09 M
- IC50 (H1299 (Lung), read-out: IC50 [M] (ProliFiler-140)): 7.85e-08 M and 7.9e-08 M
- IC50 (H2228 (Lung), read-out: IC50 [M] (ProliFiler-140)): 5.68e-08 M and 5.7e-08 M
- IC50 (HCC38 (Breast), read-out: IC50 [M] (ProliFiler-140)): 1.9e-08 M
- Reductive Activation Index (HCC202 (Breast)): 7.1
- IC50 (HCC202 (Breast), read-out: IC50 [M] (ProliFiler-140)): 1.3e-07 M and 1.26e-07 M
- Reductive Activation Index (HCC827 (Lung)): 7.3
- IC50 (HCC827 (Lung), read-out: IC50 [M] (ProliFiler-140)): 1.9e-07 M
- Reductive Activation Index (HCC 1569 (Breast)): 8.2
- IC50 (HCC 1569 (Breast), read-out: IC50 [M] (ProliFiler-140)): 1.2e-07 M and 1.21e-07 M
- IC50 (HCT116 (Colon), read-out: IC50 [M] (ProliFiler-140)): 6.94e-08 M and 6.9e-08 M
- Reductive Activation Index (HCT-15 (Colon)): 5.23
- IC50 (HCT-15 (Colon), read-out: IC50 [M] (ProliFiler-140)): 1.04e-07 M and 1e-07 M
- IC50 (HCT-15, read-out: IC50): 1e-07 M
- Reductive Activation Index (HEC-1-A (Endometrium)): 6.5
- IC50 (HEC-1-A (Endometrium), read-out: IC50 [M] (ProliFiler-140)): 2.8e-07 M and 2.85e-07 M
- Reductive Activation Index (HEC-1-B (Endometrium)): 4.0
- IC50 (HEC-1-B (Endometrium), read-out: IC50 [M] (ProliFiler-140)): 8.3e-07 M and 8.33e-07 M
- IC50 (HL-60 (Blood), read-out: IC50 [M] (ProliFiler-140)): 1.8e-08 M and 1.83e-08 M
- Reductive Activation Index (HT-29 (Colon)): 5.3
- IC50 (HT-29 (Colon), read-out: IC50 [M] (ProliFiler-140)): 1.9e-07 M and 1.88e-07 M
- IC50 (HT-29, read-out: IC50): 1.9e-07 M
- IC50 (HT-1080 (Fibrosarcoma), read-out: IC50 [M] (ProliFiler-140)): 5.01e-08 M and 5e-08 M
- Reductive Activation Index (HeLa (Ovary)): 13.55
- Reductive Activation Index (Hep3B2.1-7 (Liver)): 5.6
- IC50 (Hep3B2.1-7 (Liver), read-out: IC50 [M] (ProliFiler-140)): 2.4e-07 M and 2.37e-07 M
- Reductive Activation Index (Hs 746T (Stomach)): 7.7
- IC50 (Hs 746T (Stomach), read-out: IC50 [M] (ProliFiler-140)): 1.3e-07 M and 1.29e-07 M
- Reductive Activation Index (HuH7 (Liver)): 5.70
- IC50 (HuH7 (Liver), read-out: IC50 [M] (ProliFiler-140)): 1.14e-07 M and 1.1e-07 M
- Reductive Activation Index (Hutu 80 (Duodenum)): 5.42 and 5.4
- IC50 (Hutu 80 (Duodenum), read-out: IC50 [M] (ProliFiler-140)): 9.92e-09 M and 9.9e-09 M
- IC50 (Ishikawa (Endometrium), read-out: IC50 [M] (ProliFiler-140)): 7.1e-09 M and 7.07e-09 M
- IC50 (J82 (Bladder), read-out: IC50 [M] (ProliFiler-140)): 9.88e-08 M and 9.9e-08 M
- Reductive Activation Index (JIMT-1 (Breast)): 8.4
- IC50 (JIMT-1 (Breast), read-out: IC50 [M] (ProliFiler-140)): 1.9e-07 M
- IC50 (JVM-3 (Blood), read-out: IC50 [M] (ProliFiler-140)): 8.72e-09 M and 8.7e-09 M
- IC50 (Jurkat (Blood), read-out: IC50 [M] (ProliFiler-140)): 1.64e-08 M and 1.6e-08 M
- Reductive Activation Index (K562 (Blood)): 5.3
- IC50 (K562 (Blood), read-out: IC50 [M] (ProliFiler-140)): 2.1e-07 M and 2.07e-07 M
- Reductive Activation Index (KARPAS 299 (Blood)): 4.42
- IC50 (KARPAS 299 (Blood), read-out: IC50 [M] (ProliFiler-140)): 1.6e-07 M
- Reductive Activation Index (KG-1 (Blood)): 4.67
- IC50 (KG-1 (Blood), read-out: IC50 [M] (ProliFiler-140)): 1.33e-07 M and 1.3e-07 M
- Reductive Activation Index (KG-1 a (Blood)): 5.26
- IC50 (KG-1 a (Blood), read-out: IC50 [M] (ProliFiler-140)): 1.05e-07 M and 1e-07 M
- IC50 (KMS-12-BM (Blood), read-out: IC50 [M] (ProliFiler-140)): 6.64e-08 M and 6.6e-08 M
- Reductive Activation Index (Kato III (Stomach)): 4.3
- IC50 (Kato III (Stomach), read-out: IC50 [M] (ProliFiler-140)): 3.7e-07 M and 3.72e-07 M
- Reductive Activation Index (LN229 (Brain)): 5.21
- IC50 (LN229 (Brain), read-out: IC50 [M] (ProliFiler-140)): 1.39e-07 M and 1.4e-07 M
- IC50 (LOU-NH91 (Lung), read-out: IC50 [M] (ProliFiler-140)): 7.5e-08 M and 7.46e-08 M
- IC50 (LOVO (Colon), read-out: IC50 [M] (ProliFiler-140)): 3.37e-08 M and 3.4e-08 M
- IC50 (LP-1 (Blood), read-out: IC50 [M] (ProliFiler-140)): 1.7e-07 M and 1.69e-07 M
- Reductive Activation Index (LnCap (Prostate)): 8.0
- IC50 (LnCap (Prostate), read-out: IC50 [M] (ProliFiler-140)): 1.1e-07 M and 1.12e-07 M
- Reductive Activation Index (M07e (Blood)): 8.55
- IC50 (M07e (Blood), read-out: IC50 [M] (ProliFiler-140)): 1.62e-08 M and 1.6e-08 M
- Reductive Activation Index (MCAS (Ovary)): 6.5 and 6.53
- IC50 (MCAS (Ovary), read-out: IC50 [M] (ProliFiler-140)): 1.3e-07 M and 1.25e-07 M
- IC50 (MCF-7 (Breast), read-out: IC50 [M] (ProliFiler-140)): 4.5e-08 M and 4.48e-08 M
- IC50 (MCF-7, read-out: IC50): 4.5e-08 M
- Reductive Activation Index (MDA MB 231 (Breast)): 4.24
- IC50 (MDA MB 231 (Breast), read-out: IC50 [M] (ProliFiler-140)): 1.74e-07 M and 1.7e-07 M
- Reductive Activation Index (MDA MB 435 (Skin)): 6.1
- IC50 (MDA MB 435 (Skin), read-out: IC50 [M] (ProliFiler-140)): 1.8e-07 M and 1.76e-07 M
- IC50 (MDA-MB-468 (Breast), read-out: IC50 [M] (ProliFiler-140)): 3.1e-08 M
- IC50 (MDA-MB-468, read-out: IC50): 3.1e-08 M
- IC50 (MEC-1 (Blood), read-out: IC50 [M] (ProliFiler-140)): 1.5e-08 M and 1.51e-08 M
